Data taken from US10196369B2, “Spirocyclic EBI2 modulators” (Sanford Burnham Prebys Medical Discovery Institute, priority 2013, dated 2019).
pIC50: −log10 of the molar value.

Molecular target: EBI2 (Homo sapiens, UniProt P32249)
Assay: Cell-based luminescent assay of EBI2 modulation (7a,25-OHC stimulated)
Settings: 7a,25-OHC final assay concentration 80 nM, 60 minute incubation
Method: To assess EBI2 modulation, the compounds described herein were assayed in the following cell-based luminescent assay:
1) Plated 600 cells/well in 4 μL of assay media into columns 1-48 of a 1536-well assay plate, using a liquid dispenser.
2) Centrifuged plates at 1000 rpm for 1 minute and covered with lids.
3) Incubated overnight at 37° C., 100% relative humidity, 5% CO2.
1) Centrifuged compound plates containing compounds described herein at 500 rpm for 1 minute.
2) Added compounds into assay plate col 5-48 to final concentration 4-5 uM. Added matching amount of DMSO to positive and negative control wells in columns 1-4.
3) Dispensed 2 uL/well of assay media to columns 1-2 for the positive control wells.
4) Added 2 uL/well of 400 nM 7a,25-OHC (final assay concentration=80 nM) in assay media to columns 3-48 for the negative control and test compound wells.
5) Centrifuged plates at 1000 rpm for 1 minute and re-lid plates.
6) Incubated plates at 37° C., 100% relative humidity, 5% CO2 for 60 minutes.
7) Following 60 minute incubation, delivered 2.5 uL of Detection Reagent solution to each assay plate (Columns 1-48) using a liquid handler.
8) Centrifuged plates at 2000 rpm for 2 minutes and re-lid plates.
9) Incubated plates for 60 minutes at 25 degrees in the dark.
10) Read plates using the Viewlux, Envision or other suitable plate reader using a luminescence detection.
The experimental values were normalized by the difference between values from neutral and stimulator control wells in each plate. Then normalized data was corrected to remove systematic plate patterns due to artifacts such as dispensing tip issues etc.

Sequence of EBI2 (P32249 whole entry): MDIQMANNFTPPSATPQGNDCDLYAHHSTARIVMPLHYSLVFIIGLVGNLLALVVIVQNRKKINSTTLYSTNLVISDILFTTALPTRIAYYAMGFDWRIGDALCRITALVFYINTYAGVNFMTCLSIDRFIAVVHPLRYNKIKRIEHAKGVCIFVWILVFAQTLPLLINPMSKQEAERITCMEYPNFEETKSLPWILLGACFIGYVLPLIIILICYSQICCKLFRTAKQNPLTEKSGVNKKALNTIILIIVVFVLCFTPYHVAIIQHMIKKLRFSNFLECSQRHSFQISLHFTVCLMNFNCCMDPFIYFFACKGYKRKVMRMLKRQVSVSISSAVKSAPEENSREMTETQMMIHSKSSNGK

pIC50 | SMILES
6.30 to 7.00 | O=C(/C=C/c1ccc(Cl)c(Cl)c1)N1CC2(CCN(Cc3ccc(F)cc3)CC2)C1 [Compound C32, (2E)-3-(3,4-dichlorophenyl)-1-{7-[(4-fluorophenyl)methyl]-2,7-diazaspiro[3.5]non-2-yl}prop-2-en-1-one]
6.30 to 7.00 | O=C(/C=C/c1ccc(Cl)c(Cl)c1)N1CC2(CCN(Cc3ccc(Cl)cc3)CC2)C1 [Compound C33, (2E)-3-(3,4-dichlorophenyl)-1-{7-[(4-chlorophenyl)methyl]-2,7-diazaspiro[3.5]non-2-yl}prop-2-en-1-one]
6.30 to 7.00 | O=C(/C=C/c1ccc(Cl)c(Cl)c1)N1CC2(CCN(Cc3ccc(C(F)(F)F)c(F)c3)CC2)C1 [Compound C34, (2E)-3-(3,4-dichlorophenyl)-1-(7-{[3-fluoro-4-(trifluoromethyl)phenyl]methyl}-2,7-diazaspiro[3.5]non-2-yl)prop-2-en-1-one]
> 7.00 | O=C(/C=C/c1ccc(Cl)c(Cl)c1)N1CCC2(CC1)CN(C(=O)/C=C/c1ccc(Cl)c(Cl)c1)C2 [Compound C35, (2E)-1-{2-[(2E)-3-(3,4-dichlorophenyl)prop-2-enoyl]-2,7-diazaspiro[3.5]non-7-yl}-3-(3,4-dichlorophenyl)prop-2-en-1-one]
6.30 to 7.00 | O=C(c1cc2cc(Cl)ccc2[nH]1)N1CC2(CCN(Cc3ccc(OC(F)(F)F)cc3)CC2)C1 [Compound C36, 5-chloroindol-2-yl 7-{[4-(trifluoromethoxy)phenyl]methyl}-2,7-diazaspiro[3.5]non-2-yl ketone]
6.30 to 7.00 | O=C(c1ccc(B(O)O)cc1)N1CCC2(CC1)CN(C(=O)c1cc3cc(Cl)ccc3[nH]1)C2 [Compound C37, 4-(2-(5-chloro-1H-indole-2-carbonyl)-2,7-diazaspiro[3.5]nonane-7-carbonyl)phenylboronic acid]
6.30 to 7.00 | O=C(c1ccc(F)cc1)N1CCC2(CC1)CN(C(=O)c1cc3cc(Cl)ccc3[nH]1)C2 [Compound C38, 5-chloroindol-2-yl 7-[(4-fluorophenyl)carbonyl]-2,7-diazaspiro[3.5]non-2-yl ketone]
> 7.00 | O=C(c1ccc(C(F)(F)F)cc1)N1CCC2(CC1)CN(C(=O)c1cc3cc(Cl)ccc3[nH]1)C2 [Compound C39, 5-chloroindol-2-yl 7-{[4-(trifluoromethyl)phenyl]carbonyl}-2,7-diazaspiro[3.5]non-2-yl ketone]
> 7.00 | O=C(c1ccc(Cl)cc1)N1CCC2(CC1)CN(C(=O)c1cc3cc(Cl)ccc3[nH]1)C2 [Compound C40, 5-chloroindol-2-yl 7-[(4-chlorophenyl)carbonyl]-2,7-diazaspiro[3.5]non-2-yl ketone]
5.30 to 6.30 | O=C(c1ccc(-c2nnn[nH]2)cc1)N1CCC2(CC1)CN(C(=O)c1cc3cc(Cl)ccc3[nH]1)C2 [Compound C42, 5-chloroindol-2-yl 7-[(4-(1H-1,2,3,4-tetraazol-5-yl)phenyl)carbonyl]-2,7-diazaspiro[3.5]non-2-yl ketone]
> 7.00 | N#Cc1ccc(C(=O)N2CCC3(CC2)CN(C(=O)/C=C/c2ccc(Br)cc2)C3)cc1F [Compound C43, 4-({2-[(2E)-3-(4-bromophenyl)prop-2-enoyl]-2,7-diazaspiro[3.5]non-7-yl}carbonyl)-2-fluorobenzenecarbonitrile]
> 7.00 | O=C(/C=C/c1ccc(Br)cc1)N1CC2(CCN(C(=O)c3cc(F)cc(F)c3)CC2)C1 [Compound C44, (2E)-1-{7-[(3,5-difluorophenyl)carbonyl]-2,7-diazaspiro[3.5]non-2-yl}-3-(4-bromophenyl)prop-2-en-1-one]
> 7.00 | O=C(/C=C/c1ccc(Br)cc1)N1CC2(CCN(C(=O)c3ccc(F)cc3C(F)(F)F)CC2)C1 [Compound C45, (2E)-3-(4-bromophenyl)-1-(7-{[4-fluoro-2-(trifluoromethyl)phenyl]carbonyl}-2,7-diazaspiro[3.5]non-2-yl)prop-2-en-1-one]
> 7.00 | O=C(c1ccc(Br)cc1)N1CCC2(CC1)CN(C(=O)c1cc3cc(Br)ccc3[nH]1)C2 [Compound C46, 5-bromoindol-2-yl 7-[(4-bromophenyl)carbonyl]-2,7-diazaspiro[3.5]non-2-yl ketone]
6.30 to 7.00 | O=C(c1ccc(F)cc1)N1CCC2(CC1)CN(C(=O)c1cc3cc(Br)ccc3[nH]1)C2 [Compound C47, 5-bromoindol-2-yl 7-[(4-fluorophenyl)carbonyl]-2,7-diazaspiro[3.5]non-2-yl ketone]
> 7.00 | O=C(c1cc2cc(Br)ccc2[nH]1)N1CC2(CCN(C(=O)c3ccc(F)cc3C(F)(F)F)CC2)C1 [Compound C48, 5-bromoindol-2-yl 7-{[4-fluoro-2-(trifluoromethyl)phenyl]carbonyl}-2,7-diazaspiro[3.5]non-2-yl ketone]

pIC50 | SMILES
5.30 to 6.30 | O=C(c1cc2cc(Br)ccc2[nH]1)N1CC2(CCN(Cc3ccc(Cl)cc3)CC2)C1 [Compound C49, 5-bromoindol-2-yl 7-[(4-chlorophenyl)methyl]-2,7-diazaspiro[3.5]non-2-yl ketone]
5.30 to 6.30 | O=C(c1cc2cc(Br)ccc2[nH]1)N1CC2(CCN(Cc3ccc(C(F)(F)F)cc3)CC2)C1 [Compound C50, 5-bromoindol-2-yl 7-{[4-(trifluoromethyl)phenyl]methyl}-2,7-diazaspiro[3.5]non-2-yl ketone]
> 7.00 | Nc1ccc(C(=O)N2CCC3(CC2)CN(C(=O)/C=C/c2ccc(Br)cc2)C3)cc1 [Compound C51, (2E)-1-{7-[(4-aminophenyl)carbonyl]-2,7-diazaspiro[3.5]non-2-yl}-3-(4-bromophenyl)prop-2-en-1-one]
> 7.00 | O=C(/C=C/c1ccc(Br)cc1)N1CCC2(CC1)CN(C(=O)c1ccc(F)cc1C(F)(F)F)C2 [Compound C52, (2E)-3-(4-bromophenyl)-1-(2-{[4-fluoro-2-(trifluoromethyl)phenyl]carbonyl}-2,7-diazaspiro[3.5]non-7-yl)prop-2-en-1-one]
> 7.00 | O=C(/C=C/c1ccc(Br)cc1)N1CCC2(CC1)CN(C(=O)c1ccc(F)cc1)C2 [Compound C53, (2E)-3-(4-bromophenyl)-1-{2-[(4-fluorophenyl)carbonyl]-2,7-diazaspiro[3.5]non-7-yl}prop-2-en-1-one]
> 7.00 | O=C(/C=C/c1ccc(Br)cc1)N1CCC2(CC1)CN(C(=O)c1ccc(C(F)(F)F)cc1)C2 [Compound C54, (2E)-3-(4-bromophenyl)-1-(2-{[4-(trifluoromethyl)phenyl]carbonyl}-2,7-diazaspiro[3.5]non-7-yl)prop-2-en-1-one]
5.30 to 6.30 | O=C(c1ccc(F)cc1)N1CCC2(CC1)CN(C(=O)c1cc3ccc(Cl)cc3[nH]1)C2 [Compound C55, 6-chloroindol-2-yl 7-[(4-fluorophenyl)carbonyl]-2,7-diazaspiro[3.5]non-2-yl ketone]
5.30 to 6.30 | O=C(c1ccc(Cl)cc1)N1CCC2(CC1)CN(C(=O)c1cc3ccc(Cl)cc3[nH]1)C2 [Compound C56, 6-chloroindol-2-yl 7-[(4-chlorophenyl)carbonyl]-2,7-diazaspiro[3.5]non-2-yl ketone]
5.30 to 6.30 | O=C(c1ccc(F)cc1)N1CCC2(CC1)CN(C(=O)c1cc3ccc(Br)cc3[nH]1)C2 [Compound C57, 6-bromoindol-2-yl 7-[(4-fluorophenyl)carbonyl]-2,7-diazaspiro[3.5]non-2-yl ketone]
5.30 to 6.30 | O=C(c1ccc(C(F)(F)F)cc1)N1CCC2(CC1)CN(C(=O)c1cc3ccc(Br)cc3[nH]1)C2 [Compound C58, 6-bromoindol-2-yl 7-{[4-(trifluoromethyl)phenyl]carbonyl}-2,7-diazaspiro[3.5]non-2-yl ketone]
5.30 to 6.30 | O=C(c1ccc(Cl)cc1)N1CCC2(CC1)CN(C(=O)c1cc3ccc(Br)cc3[nH]1)C2 [Compound C59, 6-bromoindol-2-yl 7-[(4-chlorophenyl)carbonyl]-2,7-diazaspiro[3.5]non-2-yl ketone]
5.30 to 6.30 | O=C(c1cc2cc(Br)ccc2[nH]1)N1CC2(CCN(Cc3ccc(F)cc3C(F)(F)F)CC2)C1 [Compound C60, 5-bromoindol-2-yl 7-{[4-fluoro-2-(trifluoromethyl)phenyl]methyl}-2,7-diazaspiro[3.5]non-2-yl ketone]
6.30 to 7.00 | O=C(c1cc2ccc(Br)cc2[nH]1)N1CC2(CCN(C(=O)c3ccc(F)cc3C(F)(F)F)CC2)C1 [Compound C61, 6-bromoindol-2-yl 7-{[4-fluoro-2-(trifluoromethyl)phenyl]carbonyl}-2,7-diazaspiro[3.5]non-2-yl ketone]
6.30 to 7.00 | COc1cc(CN2CCC3(CC2)CN(C(=O)c2cc4cc(Br)ccc4[nH]2)C3)cc(OC)c1 [Compound C62, 7-[(3,5-dimethoxyphenyl)methyl]-2,7-diazaspiro[3.5]non-2-yl 5-bromoindol-2-yl ketone]
5.30 to 6.30 | O=C(c1cc2ccc(Br)cc2[nH]1)N1CC2(CCN(Cc3ccc(C(F)(F)F)cc3)CC2)C1 [Compound C63, 6-bromoindol-2-yl 7-{[4-(trifluoromethyl)phenyl]methyl}-2,7-diazaspiro[3.5]non-2-yl ketone]
6.30 to 7.00 | O=C(C#Cc1ccc(Br)cc1)N1CC2(CCN(C(=O)c3ccc(Cl)cc3)CC2)C1 [Compound C64, 3-(4-bromophenyl)-1-{7-[(4-chlorophenyl)carbonyl]-2,7-diazaspiro[3.5]non-2-yl}prop-2-yn-1-one]
